Laboratory results: ChEMBL document CHEMBL5653631, “A Potent and Selective ULK1 Inhibitor Suppresses Autophagy and Sensitizes Cancer Cells to Nutrient Stress” (iScience, 2018)
One block for each compound: values may come before it.

Tests used:
[1] = target: Non-receptor tyrosine-protein kinase TYK2 (Homo sapiens) (UniProt P29597); assay: Inhibition of human recombinant TYK2 at 500 nM in presence of ATP by radiometric assay relative to control
[2] = target: Leucine-rich repeat serine/threonine-protein kinase 2 (Homo sapiens) (UniProt Q5S007); assay: Inhibition of human recombinant LRRK2 at 500 nM related to control ULK1
[3] = target: T1, Serine/threonine-protein kinase TAO3 (Homo sapiens) (UniProt Q9H2K8); assay: Inhibition of human recombinant TAO3 at 500 nM related to control ULK1
T1 sequence (whole entry): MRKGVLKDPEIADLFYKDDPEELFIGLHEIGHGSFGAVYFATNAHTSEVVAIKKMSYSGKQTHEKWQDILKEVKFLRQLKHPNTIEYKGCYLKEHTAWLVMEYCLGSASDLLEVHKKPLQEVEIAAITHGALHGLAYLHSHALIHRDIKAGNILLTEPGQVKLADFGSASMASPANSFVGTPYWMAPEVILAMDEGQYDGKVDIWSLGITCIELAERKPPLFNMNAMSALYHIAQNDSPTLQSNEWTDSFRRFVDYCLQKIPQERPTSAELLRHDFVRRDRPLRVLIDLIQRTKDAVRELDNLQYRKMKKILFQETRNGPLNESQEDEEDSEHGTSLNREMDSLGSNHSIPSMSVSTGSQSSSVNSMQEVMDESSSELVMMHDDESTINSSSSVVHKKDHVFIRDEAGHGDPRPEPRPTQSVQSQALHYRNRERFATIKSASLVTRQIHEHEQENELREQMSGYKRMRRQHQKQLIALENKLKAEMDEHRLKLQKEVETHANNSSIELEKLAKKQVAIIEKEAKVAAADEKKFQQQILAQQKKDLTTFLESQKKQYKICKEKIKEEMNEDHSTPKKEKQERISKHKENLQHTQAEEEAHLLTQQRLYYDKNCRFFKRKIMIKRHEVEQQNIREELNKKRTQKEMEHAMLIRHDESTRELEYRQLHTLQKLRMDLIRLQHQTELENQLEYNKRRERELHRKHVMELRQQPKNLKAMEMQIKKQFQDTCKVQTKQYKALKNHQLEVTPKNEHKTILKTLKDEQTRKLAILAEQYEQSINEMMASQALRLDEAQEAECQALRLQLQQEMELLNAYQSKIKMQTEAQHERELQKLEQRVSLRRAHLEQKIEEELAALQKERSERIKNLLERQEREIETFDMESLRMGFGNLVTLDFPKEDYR

[4] = target: T2, Inhibitor of nuclear factor kappa-B kinase subunit alpha (Homo sapiens) (UniProt O15111); assay: Inhibition of human recombinant IKKa at 15 nM in presence of ATP by radiometric assay relative to control
T2 sequence (whole entry): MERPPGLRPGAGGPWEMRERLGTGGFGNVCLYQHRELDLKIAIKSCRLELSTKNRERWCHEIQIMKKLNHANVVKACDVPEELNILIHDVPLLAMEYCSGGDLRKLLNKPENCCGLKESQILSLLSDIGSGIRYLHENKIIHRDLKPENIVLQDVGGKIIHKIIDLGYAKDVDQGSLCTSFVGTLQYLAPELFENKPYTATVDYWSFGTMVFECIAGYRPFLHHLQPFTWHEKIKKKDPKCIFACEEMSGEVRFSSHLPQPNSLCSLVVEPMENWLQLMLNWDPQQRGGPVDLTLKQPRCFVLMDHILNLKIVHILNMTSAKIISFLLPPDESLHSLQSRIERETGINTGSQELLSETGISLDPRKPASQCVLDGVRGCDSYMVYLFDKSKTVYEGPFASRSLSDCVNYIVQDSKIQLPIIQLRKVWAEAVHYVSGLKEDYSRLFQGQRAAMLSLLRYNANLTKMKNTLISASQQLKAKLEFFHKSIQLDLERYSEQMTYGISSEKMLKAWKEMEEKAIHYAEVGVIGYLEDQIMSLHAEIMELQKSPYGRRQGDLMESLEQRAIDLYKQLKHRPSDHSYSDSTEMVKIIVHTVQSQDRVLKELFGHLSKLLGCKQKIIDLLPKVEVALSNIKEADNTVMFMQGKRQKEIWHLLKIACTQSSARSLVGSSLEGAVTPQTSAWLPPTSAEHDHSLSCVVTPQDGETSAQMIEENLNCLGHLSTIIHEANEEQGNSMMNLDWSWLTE

[5] = target: MAP/microtubule affinity-regulating kinase 3 (Homo sapiens) (UniProt P27448); assay: Inhibition of human recombinant MARK3 at 15 nM in presence of ATP by radiometric assay relative to control
[6] = target: Serine/threonine-protein kinase PAK 2 (Homo sapiens) (UniProt Q13177); assay: Inhibition of human recombinant PAK2 at 15 nM related to control ULK1
[7] = target: T3, cAMP-dependent protein kinase catalytic subunit PRKX (Homo sapiens) (UniProt P51817); assay: Inhibition of human recombinant PRKX at 15 nM related to control ULK1
T3 sequence (whole entry): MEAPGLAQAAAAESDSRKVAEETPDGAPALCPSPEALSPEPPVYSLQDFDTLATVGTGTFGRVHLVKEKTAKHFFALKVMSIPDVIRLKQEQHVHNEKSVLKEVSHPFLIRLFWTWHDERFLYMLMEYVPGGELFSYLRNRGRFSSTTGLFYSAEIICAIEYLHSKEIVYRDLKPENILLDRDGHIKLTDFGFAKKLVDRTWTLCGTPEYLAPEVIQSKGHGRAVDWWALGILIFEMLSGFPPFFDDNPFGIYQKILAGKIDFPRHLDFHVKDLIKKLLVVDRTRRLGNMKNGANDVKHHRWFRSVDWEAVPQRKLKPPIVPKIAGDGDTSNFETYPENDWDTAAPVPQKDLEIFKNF

[8] = target: Rho-associated protein kinase 1 (Homo sapiens) (UniProt Q13464); assay: Inhibition of human recombinant ROCK1 at 15 nM related to control ULK1
[9] = target: Serine/threonine-protein kinase NIM1 (Homo sapiens) (UniProt Q8IY84); assay: Inhibition of human recombinant NIM1 at 40 nM in presence of ATP by radiometric assay relative to control
[10] = target: Serine/threonine-protein kinase SIK3 (Homo sapiens) (UniProt Q9Y2K2); assay: Inhibition of human recombinant QSK at 40 nM in presence of ATP by radiometric assay relative to control
[11] = target: Macrophage-stimulating protein receptor (Homo sapiens) (UniProt Q04912); assay: Inhibition of human recombinant RON at 40 nM in presence of ATP by radiometric assay relative to control
[12] = target: Cyclin-dependent kinase 1 (Homo sapiens) (UniProt P06493); assay: Inhibition of human recombinant CDC2 at 40 nM related to control ULK1
[13] = target: Tyrosine-protein kinase Lck (Homo sapiens) (UniProt P06239); assay: Inhibition of human recombinant LCK at 40 nM related to control ULK1
[14] = target: Protein kinase C iota type (Homo sapiens) (UniProt P41743); assay: Inhibition of human recombinant PKCi at 40 nM related to control ULK1

Macrophage-stimulating protein receptor (Homo sapiens), sequence (Q04912 25-304 limits assumed): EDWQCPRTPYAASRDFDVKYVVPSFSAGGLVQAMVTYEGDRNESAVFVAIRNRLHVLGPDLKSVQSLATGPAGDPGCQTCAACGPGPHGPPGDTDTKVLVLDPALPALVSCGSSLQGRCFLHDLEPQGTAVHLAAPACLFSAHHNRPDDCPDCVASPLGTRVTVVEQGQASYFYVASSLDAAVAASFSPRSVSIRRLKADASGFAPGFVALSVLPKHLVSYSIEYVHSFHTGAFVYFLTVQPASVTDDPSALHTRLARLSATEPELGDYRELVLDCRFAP
Macrophage-stimulating protein receptor (Homo sapiens), sequence (Q04912 310-1400 limits assumed): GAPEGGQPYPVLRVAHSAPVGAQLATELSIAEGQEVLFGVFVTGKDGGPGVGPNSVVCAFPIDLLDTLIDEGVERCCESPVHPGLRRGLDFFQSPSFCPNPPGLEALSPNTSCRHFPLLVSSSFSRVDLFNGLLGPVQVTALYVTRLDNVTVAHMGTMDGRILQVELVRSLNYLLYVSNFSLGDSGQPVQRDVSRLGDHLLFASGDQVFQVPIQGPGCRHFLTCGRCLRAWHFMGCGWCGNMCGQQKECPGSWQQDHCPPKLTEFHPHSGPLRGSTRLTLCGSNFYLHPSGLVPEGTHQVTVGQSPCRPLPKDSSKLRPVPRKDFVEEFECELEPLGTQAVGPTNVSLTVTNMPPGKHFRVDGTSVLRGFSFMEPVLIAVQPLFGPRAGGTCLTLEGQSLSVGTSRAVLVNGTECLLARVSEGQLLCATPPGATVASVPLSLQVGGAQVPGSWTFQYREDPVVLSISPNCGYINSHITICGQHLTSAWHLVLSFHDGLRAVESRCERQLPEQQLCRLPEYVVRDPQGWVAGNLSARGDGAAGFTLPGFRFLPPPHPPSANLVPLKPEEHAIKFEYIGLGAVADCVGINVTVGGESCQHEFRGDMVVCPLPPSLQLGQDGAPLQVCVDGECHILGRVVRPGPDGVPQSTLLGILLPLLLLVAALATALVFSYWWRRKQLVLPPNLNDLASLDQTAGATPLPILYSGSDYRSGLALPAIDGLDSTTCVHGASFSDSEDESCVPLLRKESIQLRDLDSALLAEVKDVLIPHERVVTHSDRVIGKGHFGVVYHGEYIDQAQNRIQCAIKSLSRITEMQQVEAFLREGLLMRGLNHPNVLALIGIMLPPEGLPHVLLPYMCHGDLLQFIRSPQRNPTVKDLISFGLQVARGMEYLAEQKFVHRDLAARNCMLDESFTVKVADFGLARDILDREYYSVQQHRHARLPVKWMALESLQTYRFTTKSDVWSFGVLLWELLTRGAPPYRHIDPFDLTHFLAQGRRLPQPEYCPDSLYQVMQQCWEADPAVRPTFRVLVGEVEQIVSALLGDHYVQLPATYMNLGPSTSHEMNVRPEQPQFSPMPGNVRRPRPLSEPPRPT
Serine/threonine-protein kinase SIK3 (Homo sapiens), sequence (Q9Y2K2 whole entry, looked up): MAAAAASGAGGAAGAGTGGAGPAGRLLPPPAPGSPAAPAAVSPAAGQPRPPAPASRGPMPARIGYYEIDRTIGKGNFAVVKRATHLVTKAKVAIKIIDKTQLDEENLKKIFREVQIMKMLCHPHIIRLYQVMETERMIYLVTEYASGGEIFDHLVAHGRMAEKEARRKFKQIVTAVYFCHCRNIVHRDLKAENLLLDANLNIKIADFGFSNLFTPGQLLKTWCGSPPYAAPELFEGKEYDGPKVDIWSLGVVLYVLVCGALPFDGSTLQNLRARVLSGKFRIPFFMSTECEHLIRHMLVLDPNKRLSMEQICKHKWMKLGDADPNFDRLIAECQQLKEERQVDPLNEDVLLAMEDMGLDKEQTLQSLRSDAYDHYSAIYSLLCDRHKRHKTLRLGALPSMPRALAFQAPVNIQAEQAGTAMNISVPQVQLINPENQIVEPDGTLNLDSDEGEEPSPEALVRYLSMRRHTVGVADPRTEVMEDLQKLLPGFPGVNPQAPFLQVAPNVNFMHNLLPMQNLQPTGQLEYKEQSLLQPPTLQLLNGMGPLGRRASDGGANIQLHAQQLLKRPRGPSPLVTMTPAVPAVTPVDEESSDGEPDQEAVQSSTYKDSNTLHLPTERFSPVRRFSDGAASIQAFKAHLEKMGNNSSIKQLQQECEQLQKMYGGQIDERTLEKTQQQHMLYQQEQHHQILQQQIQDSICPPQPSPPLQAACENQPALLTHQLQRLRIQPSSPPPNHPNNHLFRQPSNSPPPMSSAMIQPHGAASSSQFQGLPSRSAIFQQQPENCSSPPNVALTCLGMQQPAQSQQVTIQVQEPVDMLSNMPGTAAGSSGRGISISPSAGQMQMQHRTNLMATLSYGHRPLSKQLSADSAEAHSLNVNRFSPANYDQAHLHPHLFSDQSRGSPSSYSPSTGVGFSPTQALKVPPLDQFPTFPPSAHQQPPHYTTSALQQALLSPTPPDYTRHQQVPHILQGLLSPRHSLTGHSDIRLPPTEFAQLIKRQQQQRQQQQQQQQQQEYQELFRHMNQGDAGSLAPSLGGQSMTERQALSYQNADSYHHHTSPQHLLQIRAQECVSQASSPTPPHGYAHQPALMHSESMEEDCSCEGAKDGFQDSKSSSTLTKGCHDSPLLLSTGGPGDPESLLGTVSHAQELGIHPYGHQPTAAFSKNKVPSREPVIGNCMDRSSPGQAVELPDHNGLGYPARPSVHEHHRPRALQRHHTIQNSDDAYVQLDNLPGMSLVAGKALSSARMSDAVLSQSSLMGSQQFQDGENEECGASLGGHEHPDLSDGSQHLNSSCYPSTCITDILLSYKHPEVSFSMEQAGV
Tyrosine-protein kinase Lck (Homo sapiens), sequence (P06239 2-509 limits assumed): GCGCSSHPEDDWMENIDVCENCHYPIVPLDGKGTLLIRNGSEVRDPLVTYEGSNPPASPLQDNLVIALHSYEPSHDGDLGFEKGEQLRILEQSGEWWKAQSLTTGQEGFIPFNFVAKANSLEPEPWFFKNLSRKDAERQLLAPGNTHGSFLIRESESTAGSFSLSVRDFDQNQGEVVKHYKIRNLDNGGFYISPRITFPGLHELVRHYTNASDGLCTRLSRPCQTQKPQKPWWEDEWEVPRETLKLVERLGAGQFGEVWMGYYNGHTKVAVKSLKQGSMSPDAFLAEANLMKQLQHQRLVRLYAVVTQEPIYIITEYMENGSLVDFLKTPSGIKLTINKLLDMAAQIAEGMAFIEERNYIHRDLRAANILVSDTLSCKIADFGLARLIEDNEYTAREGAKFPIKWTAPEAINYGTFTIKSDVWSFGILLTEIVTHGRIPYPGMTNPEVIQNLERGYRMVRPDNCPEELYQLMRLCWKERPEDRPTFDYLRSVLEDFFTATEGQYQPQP
Non-receptor tyrosine-protein kinase TYK2 (Homo sapiens), sequence (P29597 whole entry): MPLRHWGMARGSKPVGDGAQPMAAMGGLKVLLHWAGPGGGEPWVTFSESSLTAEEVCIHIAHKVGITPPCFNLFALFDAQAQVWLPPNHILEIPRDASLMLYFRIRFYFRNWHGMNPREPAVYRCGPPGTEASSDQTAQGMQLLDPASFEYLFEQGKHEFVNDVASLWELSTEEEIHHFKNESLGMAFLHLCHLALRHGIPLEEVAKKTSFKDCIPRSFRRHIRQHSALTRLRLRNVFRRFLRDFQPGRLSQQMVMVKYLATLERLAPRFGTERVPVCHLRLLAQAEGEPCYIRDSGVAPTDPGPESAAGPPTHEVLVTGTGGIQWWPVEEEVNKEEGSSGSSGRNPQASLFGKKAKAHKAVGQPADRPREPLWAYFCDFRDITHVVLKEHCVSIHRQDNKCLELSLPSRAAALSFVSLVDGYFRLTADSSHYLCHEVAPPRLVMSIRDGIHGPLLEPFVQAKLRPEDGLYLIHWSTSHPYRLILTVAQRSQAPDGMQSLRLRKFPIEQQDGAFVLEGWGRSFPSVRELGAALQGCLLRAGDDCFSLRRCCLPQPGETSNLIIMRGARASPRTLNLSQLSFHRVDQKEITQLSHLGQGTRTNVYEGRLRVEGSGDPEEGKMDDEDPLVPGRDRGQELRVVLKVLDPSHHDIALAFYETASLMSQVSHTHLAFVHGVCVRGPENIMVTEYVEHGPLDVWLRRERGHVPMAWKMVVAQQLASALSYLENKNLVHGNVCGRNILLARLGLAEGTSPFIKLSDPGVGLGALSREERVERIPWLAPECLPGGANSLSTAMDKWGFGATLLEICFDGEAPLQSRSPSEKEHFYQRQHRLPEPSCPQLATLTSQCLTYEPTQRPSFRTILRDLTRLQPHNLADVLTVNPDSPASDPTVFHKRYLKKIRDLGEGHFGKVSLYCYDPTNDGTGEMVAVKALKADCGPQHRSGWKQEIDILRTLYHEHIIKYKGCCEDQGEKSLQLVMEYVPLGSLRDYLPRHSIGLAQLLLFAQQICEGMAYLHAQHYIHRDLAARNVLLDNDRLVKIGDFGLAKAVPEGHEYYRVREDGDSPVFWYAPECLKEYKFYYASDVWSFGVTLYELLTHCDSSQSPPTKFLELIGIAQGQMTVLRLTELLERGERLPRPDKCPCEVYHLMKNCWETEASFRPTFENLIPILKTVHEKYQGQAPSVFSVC
Serine/threonine-protein kinase NIM1 (Homo sapiens), sequence (Q8IY84 whole entry): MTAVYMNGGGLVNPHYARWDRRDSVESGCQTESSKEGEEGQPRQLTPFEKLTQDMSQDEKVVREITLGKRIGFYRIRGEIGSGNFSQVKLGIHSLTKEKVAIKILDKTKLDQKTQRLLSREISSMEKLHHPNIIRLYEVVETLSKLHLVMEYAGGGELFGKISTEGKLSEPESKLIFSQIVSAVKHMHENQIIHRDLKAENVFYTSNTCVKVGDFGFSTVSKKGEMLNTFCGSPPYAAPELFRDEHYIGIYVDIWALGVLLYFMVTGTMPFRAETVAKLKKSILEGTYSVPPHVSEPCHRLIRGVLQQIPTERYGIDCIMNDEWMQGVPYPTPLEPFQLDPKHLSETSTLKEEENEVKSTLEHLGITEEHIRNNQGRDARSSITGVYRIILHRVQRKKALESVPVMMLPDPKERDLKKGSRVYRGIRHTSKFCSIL

inhibition [1]: 78%
fold change (FC) [2]: 0.47
fold change (FC) [3]: 0
SMILES: CNC(=O)c1ccccc1Oc1nc(Nc2cc(OC)c(OC)c(OC)c2)ncc1Br

inhibition [4]: 1%
inhibition [5]: 63%
fold change (FC) [6]: 0
fold change (FC) [7]: 0.18
fold change (FC) [8]: 0.09
SMILES: CC(C)[C@H](NC(=O)c1cc(-c2cnn3cc(-c4ccc(OCCN5CCCCC5)cc4)cnc23)cs1)C(F)(F)F

inhibition [9]: 0%
inhibition [10]: 59%
inhibition [11]: 0%
fold change (FC) [12]: 0.62
fold change (FC) [13]: 0
fold change (FC) [14]: 0
SMILES: O=C(N[C@@H](C1CC1)C(F)(F)F)c1cc(-c2cnn3cc(-c4ccc(F)cc4)cnc23)cs1
